Experimental findings from patent US7361658B2, “2-acylaminothiazole derivative or salt thereof” (Astellas Pharma Inc., priority 2003, dated 2008) are described below.

The structures appear in SMILES notation.

Experiment [1] deals with T1, human c-mpl-Ba/F3 cells (Homo sapiens, UniProt P40238).
T1 construct: expressed in transfected cells; host or cells: Ba/F3 (murine pro-B cells) expressing human c-mpl
T1 sequence (P40238 26-635): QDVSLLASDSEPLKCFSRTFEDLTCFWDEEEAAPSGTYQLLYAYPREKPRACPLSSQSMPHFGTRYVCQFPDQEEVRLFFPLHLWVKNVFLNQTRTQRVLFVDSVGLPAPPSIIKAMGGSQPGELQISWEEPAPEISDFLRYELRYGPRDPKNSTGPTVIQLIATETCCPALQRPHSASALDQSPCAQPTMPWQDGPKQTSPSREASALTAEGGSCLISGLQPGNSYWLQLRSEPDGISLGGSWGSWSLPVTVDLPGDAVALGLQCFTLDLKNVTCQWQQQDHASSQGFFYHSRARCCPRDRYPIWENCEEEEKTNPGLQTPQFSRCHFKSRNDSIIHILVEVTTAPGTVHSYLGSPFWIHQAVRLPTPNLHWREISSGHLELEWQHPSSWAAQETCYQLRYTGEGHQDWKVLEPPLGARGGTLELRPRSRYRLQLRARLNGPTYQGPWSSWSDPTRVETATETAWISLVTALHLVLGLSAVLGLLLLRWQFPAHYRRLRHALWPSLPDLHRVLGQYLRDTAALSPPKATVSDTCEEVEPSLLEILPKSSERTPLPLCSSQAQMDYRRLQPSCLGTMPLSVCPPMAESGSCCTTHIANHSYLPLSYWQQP
Kind of experiment: Mouse oral administration test: human c-mpl-Ba/F3 cell growth activity of a plasma after oral administration. It counts as in vivo. To be noted: male ICR mouse, plasma 2 h after administration, maximum activity of each test compound = 100%. On the procedure: (iii) Mouse Oral Administration Test
3 mg/kg or 10 mg/kg (100 mg/kg in Comparative Compounds 1 to 3) of a test compound dissolved or suspended in a 0.5% methylcellulose aqueous solution was orally administered to a male ICR mouse. After 2 hours from administration, a blood was sampled from the subabdominal large vein using 1/10-volume 3.8% sodium citrate as an anticoagulant. Centrifugation was performed at 12,000 rpm for 3 minutes. The resulting plasma was heated at 56° C. for 30 minutes, and added to a system of the human c-mpl-Ba/F3 cell growth test described in (i) such that the final concentration of the plasma reached 0.3%, 1% or 3% (10% in Comparative Compounds 1 to 3) to measure a cell growth activity. The cell growth activity (%) of each plasma was measured when the maximum cell growth activity of each test compound was defined as 100%.

For another experiment, the system named is Human CD34+ cells. Kind of experiment: Test for measuring a function of accelerating formation of megakaryocytic colonies. The class given is cell-based. The settings on record: megakaryocytic colony formation, 10 to 14 days, MegaCult-C. How it is done: (ii) Test for Measuring a Function of Accelerating Formation of Megakaryocytic Colonies
Human CD34^+ cells were cultured in a 2-well chamber slide in the presence of a test product at 37° C. for from 10 to 14 days using MegaCult™-C (StemCell Technologies). After dehydration and fixation were conducted according to the attached manual, dying was conducted with an anti-glycoprotein IIb/IIIa antibody. The number of colonies for 1 well was counted by a microscope on condition that a population of 3 or more dyed megakaryocytes was one colony. An EC30 value of each test compound was calculated from a dose curve.

For experiment [2], the target named is T1, human c-mpl-Ba/F3 cells. In words: Human c-mpl-Ba/F3 cell growth test. The class given is cell-based. To be noted: for Pot: concentration at which cell growth is accelerated by 30% of the maximum cell growth activity of compound A, 24 h culture; for Emax: maximum cell growth activity, maximum of compound A defined as 100%, read-out: Efficacy. How it is done: (i) Human c-mpl-Ba/F3 Cell Growth Test
In a 96-well microplate, 2×10^5 cells/ml of human c-mpl-Ba/F3 cells were cultured at 37° C. in 10% fetal bovine serum-containing RPMI1640 medium (100 μl/well) containing each test compound at each concentration. After 24 hours from the start-up of culture, 10 μl/well of WST-1/1-methoxy PMS (cell counting kit, Dojin) was added. Immediately after addition and 2 hours after addition, absorbance of A450/A650 was measured with a microplate reader (Model 3350: Bio-Rad), and an increase in absorbance for 2 hours was defined as a growth activity of each test compound.
pot: Concentration of each test compound at which to accelerate cell growth by 30% of a maximum cell growth activity of compound A (compound A and rhTPO in rhTPO)
Efficacy: Maximum cell growth activity of each test compound when a maximum cell growth activity of compound A (compound A and rhTPO in rhTPO) is defined as 100%.
Compound A refers to a compound in Example 9 of the foregoing Patent Document 10.

Setting [3] is: 10 mg/kg p.o., dilution rate 3%.

On to `CCCCN(C)Cc1sc(NC(=O)c2cnc(N3CCC(C(=O)O)CC3)c(Cl)c2)nc1-c1cc(Cl)cs1` [Example 71, 1-(5-{[5-{[butyl(methyl)amino]methyl}-4-(4-chlorothiophen-2-yl)thiazol-2-yl]carbamoyl}-3-chloro-2-pyridyl)piperidin-4-carboxylic acid], for which the Cell growth activity entry on human c-mpl-Ba/F3 cells [1] (3 mg/kg p.o., dilution rate 3%) is listed as “≧80%”. Further, the EC30 value with Human CD34+ cells came to 20 nM. At human c-mpl-Ba/F3 cells [2], the Pot is reported as 2.0 nM and the Emax turned out to be 110%.

Take `CN(Cc1sc(NC(=O)c2cnc(N3CCC(C(=O)O)CC3)c(Cl)c2)nc1-c1cc(Cl)cs1)C1CCC1` [Example 100, 1-{3-chloro-5-[(4-(4-chlorothiophen-2-yl)-5-{[cyclobutyl(methyl)amino]methyl}thiazol-2-yl)carbamoyl]-2-pyridyl}piperidine-4-carboxylic acid]: at human c-mpl-Ba/F3 cells [1] (3 mg/kg p.o., dilution rate 3%), the Cell growth activity result is given as “≧80%”. In the experiment with Human CD34+ cells, the EC30 value turned out to be 34 nM. On human c-mpl-Ba/F3 cells [2], the Pot was 2.9 nM and the Emax is 117%.

Regarding `CC(C)N(C)Cc1sc(NC(=O)c2cnc(N3CCC(C(=O)O)CC3)c(Cl)c2)nc1-c1cc(Cl)cs1` [Example 104, 1-{3-chloro-5-[(4-(4-chlorothiophen-2-yl)-5-{[isopropyl(methyl)amino]methyl}thiazol-2-yl)carbamoyl]-2-pyridyl}piperidine-4-carboxylic acid], at human c-mpl-Ba/F3 cells [1] (3 mg/kg p.o., dilution rate 1%), the Cell growth activity was 63%. Moreover, in the experiment with Human CD34+ cells, the EC30 value came out at 36 nM. Also, at human c-mpl-Ba/F3 cells [2], the Pot was 3.5 nM and the Emax is 105%.

On to `C[C@H]1CCCN1Cc1sc(NC(=O)c2cnc(N3CCC(C(=O)O)CC3)c(Cl)c2)nc1-c1cc(Cl)cs1` [Example 106, 1-{3-chloro-5-[(4-(4-chlorothiophen-2-yl)-5-{[(2S)-2-methylpyrrolidin-1-yl]methyl}thiazol-2-yl)carbamoyl]-2-pyridyl}piperidine-4-carboxylic acid], for which, on human c-mpl-Ba/F3 cells [1] (3 mg/kg p.o., dilution rate 1%), the Cell growth activity is on record as 63%. For the same compound, the EC30 value in the experiment with Human CD34+ cells amounted to 23 nM. Besides, at human c-mpl-Ba/F3 cells [2], the Pot came to 2.1 nM and the Emax was found to be 112%.

The compound `CCCCN(C)Cc1sc(NC(=O)c2cnc(NCCCO)c(Cl)c2)nc1-c1cc(Cl)cs1` [Example 151, N-[5-{[butyl(methyl)amino]methyl}-4-(4-chlorothiophen-2-yl)thiazol-2-yl]-5-chloro-6-[(3-hydroxypropyl)amino]nicotinamide] showed a Cell growth activity on human c-mpl-Ba/F3 cells [1] (setting [3]) of 24%. Moreover, at human c-mpl-Ba/F3 cells [2], the Pot was found to be 8.4 nM and the Emax amounted to 99%.

Regarding `CCCCN(C)Cc1sc(NC(=O)c2cnc(N3CCNC(=O)C3)c(Cl)c2)nc1-c1cc(Cl)cs1` [Example 153, N-[5-{[butyl(methyl)amino]methyl}-4-(4-chlorothiophen-2-yl)thiazol-2-yl]-5-chloro-6-(3-oxopiperazin-1-yl)nicotinamide], the Cell growth activity at human c-mpl-Ba/F3 cells [1] (setting [3]) is recorded as 29%. Also, on human c-mpl-Ba/F3 cells [2], the Pot turned out to be 6.1 nM and the Emax was 99%.

For `C[C@@H]1CCCN1Cc1sc(NC(=O)c2cnc(N3CCC(C(=O)O)CC3)c(F)c2)nc1-c1cc(Cl)cs1` [Example 315, 1-{5-[(4-(4-chlorothiophen-2-yl)-5-{[(2R)-2-methylpyrrolidin-1-yl]methyl}thiazol-2-yl)carbamoyl]-3-fluoro-2-pyridyl}piperidin-4-carboxylic acid], in the experiment with Human CD34+ cells, the EC30 value is 45 nM. Further, on human c-mpl-Ba/F3 cells [2], the Pot stood at 3.2 nM and the Emax worked out at 98%.
